Source: PubChem BioAssay (NCI)
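Values below derive from 48-hour exposures of cells grown in 96-well plates, with endpoints linearly interpolated between the two concentrations bracketing the appropriate inhibition level. The concentration for full growth arrest is given as TGI.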

Tests used:
Assay in all cases: NCI anticancer screen, dose series, 48 h
A498 renal = tested on: A498 renal
A549 NSCLC = tested on: A549 NSCLC
CAKI-1 renal = tested on: CAKI-1 renal
CCRF-CEM leukemia = tested on: CCRF-CEM leukemia
HCC-2998 colon = tested on: HCC-2998 colon
MALME-3M melanoma = tested on: MALME-3M melanoma
NCI-H460 lung = tested on: NCI-H460 lung
NCI/ADR-RES ovarian = tested on: NCI/ADR-RES ovarian
SN12C renal = tested on: SN12C renal
SR leukemia = tested on: SR leukemia

CN(C)CCNc1ccc2ncnc3c2c1C(=O)c1ccccc1-3
TGI (A498 renal): 9.25 µM | TGI (A549 NSCLC): 1.73 µM | TGI (CAKI-1 renal): 2.01 µM | TGI (CCRF-CEM leukemia): 2.89 µM | TGI (HCC-2998 colon): 2.92 µM | TGI (MALME-3M melanoma): 2.38 µM | TGI (NCI-H460 lung): 5.01 µM | TGI (NCI/ADR-RES ovarian): 5.28 µM | TGI (SN12C renal): 13.9 µM | TGI (SR leukemia): 0.915 µM

CCn1nc(C)c2c1C(=O)NC(C)C(=O)N2 (stereo unspecified)
TGI (A498 renal): > 100 µM | TGI (A549 NSCLC): > 100 µM | TGI (CAKI-1 renal): > 100 µM | TGI (NCI-H460 lung): > 100 µM | TGI (SN12C renal): > 100 µM

CC(C)(N)CO[C@H]1C[C@H]2CC[C@@]1(C)C2(C)C
TGI (A498 renal): 82.1 µM | TGI (A549 NSCLC): > 100 µM | TGI (CAKI-1 renal): 70.6 µM | TGI (CCRF-CEM leukemia): 83.6 µM | TGI (HCC-2998 colon): 5.23 µM | TGI (MALME-3M melanoma): 33.6 µM | TGI (NCI-H460 lung): 36.3 µM | TGI (NCI/ADR-RES ovarian): > 100 µM | TGI (SN12C renal): > 100 µM | TGI (SR leukemia): 81.1 µM

C=C(C)[C@@H]1CC[C@]2(C)CC[C@]3(C)[C@H](CC[C@@H]4[C@@]5(C)CC[C@H](OC(=O)c6ccccc6)C(C)(C)[C@@H]5CC[C@]43C)[C@@H]12
TGI (A498 renal): > 100 µM | TGI (A549 NSCLC): > 100 µM | TGI (CAKI-1 renal): > 100 µM | TGI (CCRF-CEM leukemia): > 100 µM | TGI (HCC-2998 colon): > 100 µM | TGI (MALME-3M melanoma): > 100 µM | TGI (NCI-H460 lung): > 100 µM | TGI (NCI/ADR-RES ovarian): > 100 µM | TGI (SN12C renal): > 100 µM | TGI (SR leukemia): > 100 µM

COc1cc2cc[n+](C)c(Cc3ccccc3)c2cc1OC
TGI (A498 renal): > 100 µM | TGI (A549 NSCLC): > 100 µM | TGI (CCRF-CEM leukemia): > 100 µM | TGI (MALME-3M melanoma): > 100 µM | TGI (NCI-H460 lung): > 100 µM | TGI (SN12C renal): > 100 µM

CNC(C)Cc1ccccc1O (stereo unspecified)
TGI (A498 renal): > 100 µM | TGI (A549 NSCLC): > 100 µM | TGI (CAKI-1 renal): > 100 µM | TGI (CCRF-CEM leukemia): > 100 µM | TGI (HCC-2998 colon): > 100 µM | TGI (MALME-3M melanoma): > 100 µM | TGI (NCI-H460 lung): > 100 µM | TGI (SN12C renal): > 100 µM | TGI (SR leukemia): > 100 µM

Cc1nc(Cl)c(Cl)c(Cl)n1
TGI (A498 renal): 4.81 µM | TGI (A549 NSCLC): 3.25 µM | TGI (CCRF-CEM leukemia): 0.0333 µM | TGI (HCC-2998 colon): 7.04 µM | TGI (MALME-3M melanoma): 0.573 µM | TGI (NCI-H460 lung): 6.33 µM | TGI (NCI/ADR-RES ovarian): 15.3 µM | TGI (SN12C renal): 1.26 µM

COc1ccc(-c2cc(-c3ccccc3)n(C3OCC(OC(C)=O)C(OC(C)=O)C3OC(C)=O)c(=S)c2C#N)cc1 (stereo unspecified)
TGI (A498 renal): > 100 µM | TGI (A549 NSCLC): > 100 µM | TGI (CAKI-1 renal): > 100 µM | TGI (CCRF-CEM leukemia): > 100 µM | TGI (HCC-2998 colon): > 100 µM | TGI (MALME-3M melanoma): > 100 µM | TGI (NCI-H460 lung): > 100 µM | TGI (NCI/ADR-RES ovarian): > 100 µM | TGI (SN12C renal): > 100 µM | TGI (SR leukemia): > 100 µM

Nc1ccc2c(c1)C1=NNC(=O)CC1C2 (stereo unspecified)
TGI (A498 renal): > 100 µM | TGI (A549 NSCLC): > 100 µM | TGI (CAKI-1 renal): > 100 µM | TGI (CCRF-CEM leukemia): > 100 µM | TGI (HCC-2998 colon): > 100 µM | TGI (MALME-3M melanoma): > 100 µM | TGI (NCI-H460 lung): > 100 µM | TGI (NCI/ADR-RES ovarian): > 100 µM | TGI (SN12C renal): > 100 µM

COc1ccc(NS(=O)c2ccc(-c3ccccc3)cc2)cc1 (stereo unspecified)
TGI (A549 NSCLC): > 100 µM | TGI (CAKI-1 renal): > 100 µM | TGI (CCRF-CEM leukemia): > 100 µM | TGI (HCC-2998 colon): > 100 µM | TGI (MALME-3M melanoma): > 100 µM | TGI (NCI-H460 lung): > 100 µM | TGI (NCI/ADR-RES ovarian): > 100 µM | TGI (SN12C renal): > 100 µM | TGI (SR leukemia): > 100 µM

CC1SC(c2ccccc2)N(Nc2c3ccccc3nc3ccccc23)C1=O (stereo unspecified)
TGI (A549 NSCLC): > 100 µM | TGI (CAKI-1 renal): > 100 µM | TGI (CCRF-CEM leukemia): > 100 µM | TGI (HCC-2998 colon): > 100 µM | TGI (MALME-3M melanoma): > 100 µM | TGI (NCI-H460 lung): > 100 µM | TGI (SN12C renal): > 100 µM | TGI (SR leukemia): > 100 µM

CC(CN(C)C)C(=O)c1ccccc1C(=O)O (stereo unspecified)
TGI (A498 renal): > 100 µM | TGI (A549 NSCLC): > 100 µM | TGI (CAKI-1 renal): 83.9 µM | TGI (CCRF-CEM leukemia): 30.3 µM | TGI (MALME-3M melanoma): 83 µM | TGI (NCI/ADR-RES ovarian): 92.6 µM | TGI (SN12C renal): 81.2 µM
